The values below are quoted from earlier work in article PMC2929769 (Toxicon : official journal of the International Society on …, 2010).

Each structure is given as a SMILES string.

The subject of this data set is RTA. The conditions noted are these: read-out: RTA IC50.

For `Nc1nc(=O)c(CCCc2ccc(C(=O)O)cc2)c(O)[nH]1` [PBA, 4-[3-(2-amino-1,4-dihydro-6-hydroxy-4-oxo-5-pyrimidinyl)propyl]-benzoic acid], the IC50 (as a rule, the midpoint of a concentration-inhibition curve) is 270 µM.
